For experiment [1], the target named is T1, Ectonucleoside triphosphate diphosphohydrolase 1 (Mus musculus, UniProt P55772).
T1 sequence (P55772 whole entry): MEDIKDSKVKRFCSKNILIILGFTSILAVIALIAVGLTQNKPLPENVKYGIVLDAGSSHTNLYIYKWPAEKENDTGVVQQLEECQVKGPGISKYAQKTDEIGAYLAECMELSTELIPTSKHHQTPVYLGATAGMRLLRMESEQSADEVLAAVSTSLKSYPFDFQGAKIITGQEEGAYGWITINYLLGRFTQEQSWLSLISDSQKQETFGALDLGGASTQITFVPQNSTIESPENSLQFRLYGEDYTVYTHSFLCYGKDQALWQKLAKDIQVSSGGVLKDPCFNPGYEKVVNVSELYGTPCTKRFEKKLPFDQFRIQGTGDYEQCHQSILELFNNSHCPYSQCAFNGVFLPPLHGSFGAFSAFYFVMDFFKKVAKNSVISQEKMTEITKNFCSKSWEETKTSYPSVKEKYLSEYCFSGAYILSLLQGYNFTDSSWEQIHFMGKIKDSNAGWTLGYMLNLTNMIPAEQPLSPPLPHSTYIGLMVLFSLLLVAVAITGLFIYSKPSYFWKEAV
Kind of experiment: Inhibition of mouse CD39.

The next experiment relates to MDA-MB-231. Kind of experiment: Cytotoxicity against human MDA-MB-231 cells expressing CD73 assessed as reduction in cell viability by CCK8 assay. It is filed as functional, cell-based. For orientation: Tetrazolium dyes change colour on reduction, which living cells bring about.
In experiment [2] the target is T2, 5'-nucleotidase (Mus musculus, UniProt Q61503).
T2 sequence (Q61503 whole entry): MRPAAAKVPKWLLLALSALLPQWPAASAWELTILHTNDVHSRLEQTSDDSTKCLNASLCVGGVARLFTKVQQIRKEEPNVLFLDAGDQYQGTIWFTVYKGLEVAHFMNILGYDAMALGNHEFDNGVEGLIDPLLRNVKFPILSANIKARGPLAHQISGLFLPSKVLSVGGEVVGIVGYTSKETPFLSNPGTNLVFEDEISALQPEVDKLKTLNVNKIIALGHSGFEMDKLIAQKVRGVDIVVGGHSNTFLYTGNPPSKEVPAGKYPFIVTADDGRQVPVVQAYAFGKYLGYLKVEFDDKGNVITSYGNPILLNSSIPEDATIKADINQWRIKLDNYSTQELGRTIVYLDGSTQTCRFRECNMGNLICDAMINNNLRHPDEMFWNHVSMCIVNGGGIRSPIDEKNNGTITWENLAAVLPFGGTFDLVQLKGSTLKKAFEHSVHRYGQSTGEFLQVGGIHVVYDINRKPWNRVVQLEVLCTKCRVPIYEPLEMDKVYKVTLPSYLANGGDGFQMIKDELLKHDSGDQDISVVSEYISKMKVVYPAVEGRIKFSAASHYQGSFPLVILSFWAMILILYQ
Kind of experiment: Inhibition of mouse CD73.

For another experiment, the system named is MIA PaCa-2. The experiment is described as follows: Cytotoxicity against human MIA PaCa-2 cells expressing CD73 assessed as reduction in cell viability by CCK8 assay. It is filed as functional, cell-based.
For experiment [3], the target named is 5'-nucleotidase (Homo sapiens, UniProt P21589). The experiment is described as follows: Inhibition of human CD73.
Sequence of 5'-nucleotidase (Homo sapiens, UniProt P21589) (P21589 whole entry): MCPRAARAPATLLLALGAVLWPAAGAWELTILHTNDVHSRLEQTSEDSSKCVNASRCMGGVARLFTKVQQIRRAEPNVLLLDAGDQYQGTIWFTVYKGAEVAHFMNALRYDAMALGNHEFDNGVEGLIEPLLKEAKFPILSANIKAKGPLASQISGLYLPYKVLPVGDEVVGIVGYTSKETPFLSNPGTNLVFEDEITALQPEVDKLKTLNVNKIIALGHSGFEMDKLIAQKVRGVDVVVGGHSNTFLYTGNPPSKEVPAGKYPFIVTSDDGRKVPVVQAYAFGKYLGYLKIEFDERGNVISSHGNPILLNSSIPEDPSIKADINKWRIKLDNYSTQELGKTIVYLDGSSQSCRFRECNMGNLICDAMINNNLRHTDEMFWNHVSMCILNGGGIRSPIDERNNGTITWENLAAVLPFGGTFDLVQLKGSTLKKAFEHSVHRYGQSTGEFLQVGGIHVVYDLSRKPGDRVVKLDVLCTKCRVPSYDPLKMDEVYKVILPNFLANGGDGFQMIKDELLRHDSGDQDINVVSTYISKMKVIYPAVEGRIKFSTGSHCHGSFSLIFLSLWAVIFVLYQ
Experiment [4] in a line: Selectivity ratio of IC50 for inhibition of human CD73 to IC50 for inhibition of mouse CD73.
Experiment [5] is described as follows: Selectivity ratio of IC50 for inhibition of human CD73 to IC50 for inhibition of mouse CD39.

Results on five molecules are retold here after ChEMBL document CHEMBL4680324, “Discovery of natural product ellagic acid as a potent CD73 and CD39 dual inhibitor” (Bioorg Med Chem Lett, 2021).

A value given as a limit tells only on which side of the number the result lay.

As for `C=C(C)[C@@H]1CC[C@]2(CO)CC[C@]3(C)[C@H](CC[C@@H]4[C@@]5(C)CC[C@H](O)C(C)(C)[C@@H]5CC[C@]43C)[C@@H]12` [BETULIN], the IC50 in experiment [1] stood at 49.8 µM; in the experiment on MDA-MB-231, 24.6 µM; against 5'-nucleotidase [2], 50.3 µM; in the experiment on MIA PaCa-2, 95 µM; on 5'-nucleotidase [3] it was 22.7 µM.

`O=c1oc2c(O)c(O)cc3c(=O)oc4c(O)c(O)cc1c4c23` [ELLAGIC ACID]: the figures for the Ratio IC50 in experiment [4] and in experiment [5] were 46.5 and 3.7, respectively. Further, the IC50 in experiment [1] came to 0.5 µM; with MDA-MB-231, 27.4 µM; against 5'-nucleotidase [2], 0.04 µM; in the experiment on MIA PaCa-2, 150 µM; on 5'-nucleotidase [3], 1.85 µM.

Turning to `Nc1ccn([C@@H]2O[C@H](CO)[C@@H](O)C2(F)F)c(=O)n1` [GEMCITABINE], the results for the IC50 in the experiment with MDA-MB-231 and with MIA PaCa-2 were 1.15 µM and 0.23 µM, respectively.

With `O=C(OC[C@H]1O[C@@H](OC(=O)c2cc(O)c(O)c(O)c2)[C@H](OC(=O)c2cc(O)c(O)c(O)c2)[C@@H](OC(=O)c2cc(O)c(O)c(O)c2)[C@@H]1OC(=O)c1cc(O)c(O)c(O)c1)c1cc(O)c(O)c(O)c1` [PENTAGALLOYL GLUCOSE], the IC50 in experiment [1] is 1.56 µM; with MDA-MB-231, 9.12 µM; against 5'-nucleotidase [2] it was > 100 µM; with MIA PaCa-2, 72.6 µM; on 5'-nucleotidase [3], 10.5 µM.

Regarding `Nc1ncnc2c1ncn2[C@@H]1O[C@H](COP(=O)(O)CP(=O)(O)O)[C@@H](O)[C@H]1O` [PHOSPHOMETHYLPHOSPHONIC ACID ADENOSYL ESTER], the IC50 in experiment [1] is > 100 µM; on 5'-nucleotidase [2] it was 4.63 µM; against 5'-nucleotidase [3], 3.97 µM.

What is called IC50 is the midpoint of a concentration-inhibition curve.
